“And” between values parts separate entries of the source, which are not always exact repeats. Identical values can stand only once.
Legend:
Test in all cases: cells
[1] = test system: SNU-5; format: functional, cell-based; conditions: Homo sapiens;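 also: cell viability readout used to measure growth inhibition in human NCI-SNU-5 cells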
Description: SANGER: Inhibition of human NCI-SNU-5 cell growth in a cell viability assay.

[2] = test system: MHH-NB-11; format: functional, cell-based, Homo sapiens;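 also: growth inhibition of human MHH-NB-11 cells, read out by a cell viability assay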
Description: SANGER: Inhibition of human MHH-NB-11 cell growth in a cell viability assay.

[3] = test system: D-336MG; format: functional, cell-based, Homo sapiens
Description: SANGER: Inhibition of human D-336MG cell growth in a cell viability assay.

[4] = test system: SK-MEL-28; format: functional, cell-based; conditions: Homo sapiens;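 also: growth inhibition of human SK-MEL-28 cells, read out with a cell viability assay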
Description: SANGER: Inhibition of human SK-MEL-28 cell growth in a cell viability assay.

[5] = test system: D-542MG; format: functional, cell-based, Homo sapiens
Description: SANGER: Inhibition of human D-542MG cell growth in a cell viability assay.

[6] = test system: HSC-3; format: functional, cell-based, Homo sapiens
Description: SANGER: Inhibition of human HSC-3 cell growth in a cell viability assay.

[7] = test system: D-502MG; format: functional, cell-based, Homo sapiens
Description: SANGER: Inhibition of human D-502MG cell growth in a cell viability assay.

[8] = test system: CP50-MEL-B; format: functional, cell-based, Homo sapiens;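 also: growth inhibition of the human cell line, measured with a cell viability read-out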
Description: SANGER: Inhibition of human CP50-MEL-B cell growth in a cell viability assay.

[9] = test system: DU-4475; format: functional, cell-based; conditions: Homo sapiens
Description: SANGER: Inhibition of human DU-4475 cell growth in a cell viability assay.

[10] = test system: HLE; format: functional, cell-based, Homo sapiens;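 also: growth inhibition of human HLE cells, read out by a cell viability assay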
Description: SANGER: Inhibition of human HLE cell growth in a cell viability assay.

[11] = test system: MDA-MB-175-VII; format: functional, cell-based, Homo sapiens
[12] = test system: CTV-1; format: functional, cell-based; conditions: Homo sapiens;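 also: growth inhibition of the cell line, read out with a cell viability assay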
Description: SANGER: Inhibition of human CTV-1 cell growth in a cell viability assay.

[13] = test system: CAL-72; format: functional, cell-based, Homo sapiens;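 also: cell viability assay measuring inhibition of proliferation in the CAL-72 cell line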
Description: SANGER: Inhibition of human CAL-72 cell growth in a cell viability assay.

[14] = test system: KYSE-270; format: functional, cell-based, Homo sapiens;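 also: cell growth inhibition measured with a viability assay in the human KYSE-270 line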
Description: SANGER: Inhibition of human KYSE-270 cell growth in a cell viability assay.

[15] = test system: GOTO; format: functional, cell-based, Homo sapiens;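 also: growth inhibition of GOTO cells, read out by a cell viability assay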
Description: SANGER: Inhibition of human GOTO cell growth in a cell viability assay.

[16] = test system: TGBC1TKB; format: functional, cell-based, Homo sapiens;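 also: growth inhibition of TGBC1TKB cells, read out by a cell viability assay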
Description: SANGER: Inhibition of human TGBC1TKB cell growth in a cell viability assay.

[17] = test system: NB13; format: functional, cell-based, Homo sapiens;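 also: cell viability readout measuring growth inhibition of human NB13 cells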
Description: SANGER: Inhibition of human NB13 cell growth in a cell viability assay.

[18] = test system: TYK-nu; format: functional, cell-based, Homo sapiens;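 also: growth inhibition of human TYK-nu cells, read out by a cell viability assay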
Description: SANGER: Inhibition of human TYK-nu cell growth in a cell viability assay.

[19] = test system: HTC-C3; format: functional, cell-based, Homo sapiens;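 also: inhibition of cell growth, read out with a cell viability assay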
Description: SANGER: Inhibition of human HTC-C3 cell growth in a cell viability assay.

[20] = test system: 786-0; format: functional, cell-based, Homo sapiens
Description: SANGER: Inhibition of human 786-0 cell growth in a cell viability assay.

[21] = test system: S-117; format: functional, cell-based, Homo sapiens
Description: SANGER: Inhibition of human S-117 cell growth in a cell viability assay.

[22] = test system: MKN-45; format: functional, cell-based, Homo sapiens;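 also: growth inhibition of human MKN-45 cells, measured with a cell viability assay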
Description: SANGER: Inhibition of human MKN45 cell growth in a cell viability assay.

[23] = test system: HCC1395; format: functional, cell-based, Homo sapiens;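 also: growth inhibition of HCC1395 cells, read out by a cell viability assay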
Description: SANGER: Inhibition of human HCC1395 cell growth in a cell viability assay.

[24] = test system: KYSE-140; format: functional, cell-based, Homo sapiens;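 also: cell viability assay measuring growth inhibition in human KYSE-140 cells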
Description: SANGER: Inhibition of human KYSE-140 cell growth in a cell viability assay.

[25] = test system: RH-1; format: functional, cell-based, Homo sapiens;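 also: growth inhibition of human RH-1 cells, read out with a cell viability assay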
Description: SANGER: Inhibition of human RH-1 cell growth in a cell viability assay.

[26] = test system: Becker; format: functional, cell-based, Homo sapiens;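 also: growth inhibition of Becker cells, read out with a cell viability assay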
Description: SANGER: Inhibition of human Becker cell growth in a cell viability assay.

[27] = test system: JVM-2; format: functional, cell-based; conditions: Homo sapiens;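 also: growth inhibition of JVM-2 cells determined by a cell viability assay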
Description: SANGER: Inhibition of human JVM-2 cell growth in a cell viability assay.

[28] = test system: UACC-62; format: functional, cell-based, Homo sapiens;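 also: growth inhibition of human UACC-62 cells, read out by a cell viability assay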
Description: SANGER: Inhibition of human UACC-62 cell growth in a cell viability assay.

[29] = test system: KNS-81-FD; format: functional, cell-based, Homo sapiens;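 also: growth inhibition of KNS-81-FD cells, read out with a cell viability assay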
Description: SANGER: Inhibition of human KNS-81-FD cell growth in a cell viability assay.

[30] = test system: PANC-03-27; format: functional, cell-based, Homo sapiens
Description: SANGER: Inhibition of human PANC-03-27 cell growth in a cell viability assay.

[31] = test system: HOP-92; format: functional, cell-based, Homo sapiens;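 also: cell viability readout, with IC50 reflecting inhibition of HOP-92 cell growth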
Description: SANGER: Inhibition of human HOP-92 cell growth in a cell viability assay.

[32] = test system: PANC-08-13; format: functional, cell-based, Homo sapiens;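 also: cell growth inhibition, measured with a cell viability assay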
Description: SANGER: Inhibition of human PANC-08-13 cell growth in a cell viability assay.

[33] = test system: K562; format: functional, cell-based; conditions: Homo sapiens
Description: SANGER: Inhibition of human K-562 cell growth in a cell viability assay.

[34] = test system: TE-11; format: functional, cell-based, Homo sapiens;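 also: growth inhibition of human TE-11 cells, read out by a cell viability assay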
Description: SANGER: Inhibition of human TE-11 cell growth in a cell viability assay.

[35] = test system: ME-180; format: functional, cell-based; conditions: Homo sapiens;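 also: cell viability assay measuring growth inhibition of ME-180 cells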
Description: SANGER: Inhibition of human ME-180 cell growth in a cell viability assay.

[36] = test system: COLO-829; format: functional, cell-based, Homo sapiens
Description: SANGER: Inhibition of human COLO-829 cell growth in a cell viability assay.

[37] = test system: NCI-H1792; format: functional, cell-based, Homo sapiens;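 also: growth inhibition of human NCI-H1792 cells, read out as cell viability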
Description: SANGER: Inhibition of human NCI-H1792 cell growth in a cell viability assay.

[38] = test system: OE33; format: functional, cell-based, Homo sapiens;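 also: growth inhibition of human OE33 cells, measured by a cell viability assay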
Description: SANGER: Inhibition of human OE33 cell growth in a cell viability assay.

[39] = test system: NMC-G1; format: functional, cell-based, Homo sapiens;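 also: growth inhibition of the NMC-G1 cell line, measured with a cell viability read-out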
Description: SANGER: Inhibition of human NMC-G1 cell growth in a cell viability assay.

[40] = test system: LB1047-RCC; format: functional, cell-based, Homo sapiens;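 also: inhibition of cell growth, determined with a cell viability assay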
Description: SANGER: Inhibition of human LB1047-RCC cell growth in a cell viability assay.

[41] = test system: GI-ME-N; format: functional, cell-based, Homo sapiens;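 also: growth inhibition of human GI-ME-N cells, read out with a cell viability assay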
Description: SANGER: Inhibition of human GI-ME-N cell growth in a cell viability assay.

[42] = test system: SNU-C2B; format: functional, cell-based, Homo sapiens;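 also: cell viability readout used to measure compound-driven suppression of SNU-C2B cell proliferation, IC50 marking half-maximal growth inhibition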
Description: SANGER: Inhibition of human SNU-C2B cell growth in a cell viability assay.

[43] = test system: C2BBe1; format: functional, cell-based, Homo sapiens;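 also: growth inhibition of C2BBe1 cells, read out through a viability assay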
Description: SANGER: Inhibition of human C2BBe1 cell growth in a cell viability assay.

[44] = test system: EW-16; format: functional, cell-based, Homo sapiens;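 also: growth inhibition of human EW-16 cells, read out as cell viability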
Description: SANGER: Inhibition of human EW-16 cell growth in a cell viability assay.

[45] = test system: HT-1376; format: functional, cell-based, Homo sapiens
Description: SANGER: Inhibition of human HT-1376 cell growth in a cell viability assay.

[46] = test system: SW626; format: functional, cell-based, Homo sapiens;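 also: growth inhibition of SW626 cells, measured with a cell viability assay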
Description: SANGER: Inhibition of human SW626 cell growth in a cell viability assay.

[47] = test system: MIA PaCa-2; format: functional, cell-based, Homo sapiens;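 also: growth inhibition of MIA PaCa-2 cells, read out with a cell viability assay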
Description: SANGER: Inhibition of human MIA-PaCa-2 cell growth in a cell viability assay.

[48] = test system: DMS-79; format: functional, cell-based; conditions: Homo sapiens;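 also: growth inhibition measured with a cell viability assay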
Description: SANGER: Inhibition of human DMS-79 cell growth in a cell viability assay.

[49] = test system: NCI-H1563; format: functional, cell-based, Homo sapiens;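 also: growth inhibition of human NCI-H1563 cells, read out with a cell viability assay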
Description: SANGER: Inhibition of human NCI-H1563 cell growth in a cell viability assay.

[50] = test system: RXF 393; format: functional, cell-based; conditions: Homo sapiens;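 also: growth inhibition of human RXF 393 cells, read out with a cell viability assay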
Description: SANGER: Inhibition of human RXF393 cell growth in a cell viability assay.

## Cc1cc([C@@H](C)Nc2ccccc2C(=O)O)c2nc(N3CCOCC3)cc(=O)n2c1 [AZD-6482]
[1]
  IC50: > 5.12 µM
[2]; mhh-nb-11
  IC50: > 5.12 µM
[3]; d-336mg
  IC50: 1.67 µM and 3.43 µM
[4]
  IC50: > 5.12 µM
[5]; d-542mg
  IC50: 1.85 µM and > 5.12 µM
[6]; hsc-3
  IC50: > 5.12 µM
[7]; d-502mg
  IC50: > 5.12 µM
[8]; cp50-mel-b
  IC50: > 5.12 µM
[9]
  IC50: > 5.12 µM
[10]; hle
  IC50: > 5.12 µM
[11]; mda-mb-175-vii
  IC50: > 5.12 µM
[12]
  IC50: > 5.12 µM
[13]; Homo sapiens, CAL-72
  IC50: > 5.12 µM
[13]; cal-72
  IC50: > 5.12 µM
[14]; kyse-270
  IC50: > 5.12 µM
[15]; Homo sapiens, GOTO
  IC50: > 5.12 µM
[15]; goto
  IC50: > 5.12 µM
[16]; tgbc1tkb
  IC50: > 5.12 µM
[17]; Homo sapiens, NB13
  IC50: > 5.12 µM
[17]; nb13
  IC50: > 5.12 µM
[18]; tyk-nu
  IC50: > 5.12 µM
[19]; Homo sapiens, HTC-C3
  IC50: > 5.12 µM
[19]; htc-c3
  IC50: > 5.12 µM
[20]
  IC50: 1.99 µM
[20]; Homo sapiens
  IC50: 1.31 µM
[21]; s-117
  IC50: > 5.12 µM
[22]; Homo sapiens, MKN-45
  IC50: > 5.12 µM
[22]; mkn-45
  IC50: > 5.12 µM
[23]; Homo sapiens, HCC1395
  IC50: > 5.12 µM
[23]; hcc1395
  IC50: > 5.12 µM
[24]; kyse-140
  IC50: > 5.12 µM
[25]; rh-1
  IC50: > 5.12 µM
[26]; becker
  IC50: 1.36 µM and 4.54 µM
[27]
  IC50: > 5.12 µM
[28]; uacc-62
  IC50: > 5.12 µM and 2.03 µM
[29]; kns-81-fd
  IC50: > 5.12 µM
[30]; Homo sapiens, PANC-03-27
  IC50: > 5.12 µM
[30]; panc-03-27
  IC50: 4.4 µM
[31]; hop-92
  IC50: > 5.12 µM and 4.58 µM
[32]; panc-08-13
  IC50: > 5.12 µM
[33]
  IC50: > 5.12 µM
[34]; te-11
  IC50: > 5.12 µM
[35]
  IC50: > 5.12 µM
[36]; colo-829
  IC50: > 5.12 µM
[37]; nci-h1792
  IC50: > 5.12 µM
[38]; oe33
  IC50: > 5.12 µM
[39]; Homo sapiens, NMC-G1
  IC50: > 5.12 µM
[39]; nmc-g1
  IC50: > 5.12 µM
[40]; Homo sapiens, LB1047-RCC
  IC50: > 5.12 µM
[40]; lb1047-rcc
  IC50: > 5.12 µM
[41]; gi-me-n
  IC50: > 5.12 µM
[42]; Homo sapiens, SNU-C2B
  IC50: > 5.12 µM
[42]; snu-c2b
  IC50: > 5.12 µM
[43]; Homo sapiens, C2BBe1
  IC50: > 5.12 µM
[43]; c2bbe1
  IC50: > 5.12 µM
[44]; ew-16
  IC50: > 5.12 µM
[45]; ht-1376
  IC50: > 5.12 µM
[46]; sw626
  IC50: > 5.12 µM
[47]; mia paca-2
  IC50: > 5.12 µM
[48]
  IC50: > 5.12 µM
[49]; Homo sapiens, NCI-H1563
  IC50: > 5.12 µM
[49]; nci-h1563
  IC50: > 5.12 µM

## Cn1cc(C2=C(c3ccc(Cl)cc3Cl)C(=O)NC2=O)c2ccccc21 [SB-216763]
[1]
  IC50: > 10 µM
[2]; Homo sapiens, MHH-NB-11
  IC50: > 10 µM
[3]; Homo sapiens, D-336MG
  IC50: > 10 µM
[4]
  IC50: > 10 µM
[5]; Homo sapiens, D-542MG
  IC50: > 10 µM
[6]; Homo sapiens, HSC-3
  IC50: > 10 µM
[7]; Homo sapiens, D-502MG
  IC50: > 10 µM
[8]; Homo sapiens, CP50-MEL-B
  IC50: > 10 µM
[10]; Homo sapiens, HLE
  IC50: > 10 µM
[11]; Homo sapiens, MDA-MB-175-VII
  IC50: > 10 µM
[12]
  IC50: > 10 µM
[13]; Homo sapiens, CAL-72
  IC50: > 10 µM
[14]; Homo sapiens, KYSE-270
  IC50: > 10 µM
[15]; Homo sapiens, GOTO
  IC50: > 10 µM
[16]; Homo sapiens, TGBC1TKB
  IC50: > 10 µM
[17]; Homo sapiens, NB13
  IC50: > 10 µM
[18]; Homo sapiens, TYK-nu
  IC50: > 10 µM
[19]; Homo sapiens, HTC-C3
  IC50: > 10 µM
[20]; Homo sapiens
  IC50: > 10 µM
[21]; Homo sapiens, S-117
  IC50: > 10 µM
[22]; Homo sapiens, MKN-45
  IC50: > 10 µM
[23]; Homo sapiens, HCC1395
  IC50: > 10 µM
[24]; Homo sapiens, KYSE-140
  IC50: > 10 µM
[25]; Homo sapiens, RH-1
  IC50: > 10 µM
[26]; Homo sapiens, Becker
  IC50: > 10 µM
[27]
  IC50: > 10 µM
[28]; Homo sapiens, UACC-62
  IC50: > 10 µM
[29]; Homo sapiens, KNS-81-FD
  IC50: > 10 µM
[30]; Homo sapiens, PANC-03-27
  IC50: > 10 µM
[31]; Homo sapiens, HOP-92
  IC50: > 10 µM
[32]; Homo sapiens, PANC-08-13
  IC50: > 10 µM
[33]
  IC50: > 10 µM
[34]; Homo sapiens, TE-11
  IC50: > 10 µM
[35]
  IC50: > 10 µM
[36]; Homo sapiens, COLO-829
  IC50: > 10 µM
[37]; Homo sapiens, NCI-H1792
  IC50: > 10 µM
[38]; Homo sapiens, OE33
  IC50: > 10 µM
[39]; Homo sapiens, NMC-G1
  IC50: > 10 µM
[40]; Homo sapiens, LB1047-RCC
  IC50: > 10 µM
[41]; Homo sapiens, GI-ME-N
  IC50: > 10 µM
[42]; Homo sapiens, SNU-C2B
  IC50: > 10 µM
[43]; Homo sapiens, C2BBe1
  IC50: > 10 µM
[44]; Homo sapiens, EW-16
  IC50: > 10 µM
[45]; Homo sapiens, HT-1376
  IC50: > 10 µM
[46]; Homo sapiens, SW626
  IC50: > 10 µM
[47]; Homo sapiens, MIA PaCa-2
  IC50: > 10 µM
[50]
  IC50: > 10 µM
[48]
  IC50: > 10 µM
[49]; Homo sapiens, NCI-H1563
  IC50: > 10 µM

Reference: ChEMBL document CHEMBL1201861, “Genomics of Drug Sensitity in Cancer screening data, Wellcome Trust Sanger Institute”
